The nature of data set [1]: Molar enthalpy of transition or fusion. To be noted: Crystal; DSC.
The conditions of data set [2]: Crystal; DSC.
Data set [3] can be described thus: refractive index (Na D-line) (dimensionless). Particulars: 293.15 K; 101.33 kPa; Liquid; Standard Abbe refractometry.

These results are taken from the NIST ThermoML archive (doi:10.1021/acs.jced.9b00710).

Structures are written as SMILES. Numbers after ± are expanded uncertainties.

For orientation: refractive index means the speed of light in vacuum divided by its phase velocity in the sample.

With `O=C(O)c1ccccc1` [benzoic acid], the “Molar enthalpy of transition or fusion” value in data set [1] worked out at 4.25 ± 0.43 kcal/mol. Besides, the Triple point temperature in data set [2] was found to be 395.63 ± 1.2 K.
For `CCCCO` [butan-1-ol], the refractive index in data set [3] amounted to 1.3989 ± 0.002.
Consider `CCC(C)=O` [butanone], for which the refractive index in data set [3] was determined as 1.3787 ± 0.002.
Take `C1CCCCC1` [cyclohexane]: the refractive index in data set [3] is on record as 1.4235 ± 0.002.
For `C[S+](C)[O-]` [dimethyl sulfoxide], the refractive index in data set [3] is 1.4789 ± 0.002.
Same read-out and setting: next, `CN(C)C=O` [dimethylformamide]: 1.4309 ± 0.002; `CCO` [ethanol]: 1.361 ± 0.002.
For the molecule `Cc1nnc(C(C)C)n1[C@@H]1C[C@H]2CC[C@@H](C1)N2CC[C@H](NC(=O)C1CCC(F)(F)CC1)c1ccccc1` [maraviroc], in data set [1], the “Molar enthalpy of transition or fusion” value amounted to 8.7 ± 0.884 kcal/mol. Further, in data set [2], the Triple point temperature came out at 468.1 ± 1.2 K.
Regarding `CCCC(C)=O` [pentan-2-one], in data set [3], the refractive index worked out at 1.3893 ± 0.002.
Regarding `CCCO` [propan-1-ol], the refractive index in data set [3] worked out at 1.3854 ± 0.002.
`O=C(Nc1c(Cl)cncc1Cl)c1ccc(OC(F)F)c(OCC2CC2)c1` [roflumilast]: the “Molar enthalpy of transition or fusion” value in data set [1] stood at 9.04 ± 0.932 kcal/mol. For the same molecule, the Triple point temperature in data set [2] worked out at 432.4 ± 1.2 K.
As to `O` [water], the refractive index in data set [3] amounted to 1.3334 ± 0.002.
